{"source": "patent US7759101B2", "about": "“Ginsenoside glycosidases hydrolyzing ginsenoside sugar moieties and uses thereof” (priority 2000, dated 2010)", "key": {"[1]": {"test_system": "ginsenoside glycosidase III from ginseng plant", "assay": "Hydrolysis of Rd with fraction 37 (ginsenoside glycosidase III) from ginseng plant", "type": "biochemical", "conditions": "ginsenoside glycosidase III from ginseng plant", "procedure": "(§1) 200 g of fresh ginseng root was cut into pieces and added to 600 ml of 0.02 M acetate buffer pH 5. Supernatant was obtained by filtration after the mixture stand at 40° C. for 2 hours. To the supernatant (NH4)2SO4 was added gradually until 70% saturation and the mixture stand overnight at 4° C. Then protein pellets were collected by centrifugation and redissolved in 15 ml of distilled water. The solution was dialyzed against 0.02 M Tris-HCl pH 7.4. Insolubles were removed by centrifugation and the volume of the supernatant was adjusted to 20 ml.\n(§2) 5 ml of the enzyme solution was subjected to a DEAE-Cellulose DE-25 column (Whatman, 1.4×6.7 cm). The column was eluted with a KCl gradient (0.06, 0.12, 0.18 and 0.24 M) in 0.02 M Tris-HCl pH 7.4. After elution, each fraction was tested for the activity of hydrolyzing ginsenosides. […] Fraction 52 can also hydrolyze the glucosidic bond at the twentieth carbon atom of Rb and Rc to give ginsenoside F2."}, "[2]": {"test_system": "ginsenoside glycosidases from A. niger", "assay": "Hydrolysis of ginsenosides with crude ginsenoside glycosidases from A. niger, products measured by TLC", "type": "biochemical, Aspergillus niger", "conditions": "for effect of metal ions on the enzyme reaction: hydrolysis of Rb1, pH 5.0, 30°C.", "procedure": "Aspergillus niger FFCCDL-48 g was cultured in a medium containing 1% ginseng extracts and 3% wheat bran extracts at 30° C. for 54 hours. Cells were removed by centrifugation, after which (NH4)2SO4 powder was added to 2000 ml of the cell-free supernatant with stirring to 65% saturation. The solution was stored overnight at 4° C. and precipitated proteins were collected by centrifugation, resuspended in 80 ml of distilled water and dialyzed against 0.01M acetate buffer pH 5. Insolubles were removed by centrifugation, and the solution was adjusted to 200 ml with 0.01 M acetate buffer pH 5. The crude enzyme solution may be used to hydrolyze ginsenosides or to purify the enzymes.\n100 mg each of ginsenosides Rb1, Rb2, Rc and Rd and 10 mg of ginsenoside Rg3 were dissolved in separate tubes containing 10 ml of 0.01M acetate buffer pH 5. 10 ml of the crude enzyme solution obtained in 1.1 was added to each tube and allowed to react at 30° C. for 18 hours. Then 10 ml of n-butanol was added to stop the reactions. The products were measured by thin layer chromatography (TLC) (Silica gel 60-F254, Merck; chloroform:methanol:water 70:30:5).\nExperiments were carried out to explore the effects of temperature, pH, metal ions and reaction time on the enzyme reaction, in order to further characterize the enzymes.\n100 mg of ginsenoside Rb1 was used in a reaction under the conditions as described in 1.2 and the effect of temperature was shown in Table 2."}, "[3]": {"test_system": "ginsenoside glycosidase I from ginseng plants", "assay": "Hydrolysis of ginsenosides with fraction 52 (ginsenoside glycosidase I) from ginseng plant", "type": "biochemical", "conditions": "for effect of metal ion on the enzyme: ginsenoside glycosidase I from ginseng plant", "procedure": "as §1, §2"}, "[4]": {"test_system": "ginsenoside glycosidases from wheat bran", "assay": "Hydrolysis of ginsenosides with ginsenoside glycosidases from wheat bran", "type": "biochemical", "procedure": "500 g of wheat bran was added to 2500 ml of 0.02 M acetate buffer pH 5 and extracted at 40° C. for 2 hours. 2000 ml of supernatant were obtained by filtration to which (NH4)2SO4 was added gradually with stirring until 70% saturation. The mixture stand at 4° C. overnight. Protein pellets were collected by centrifugation and redissolved in 80 ml of distilled water and dialyzed against 0.02 M acetate buffer pH 5.0. Insolubles were removed by centrifugation and the supernatant was adjusted to a volume of 200 ml to obtain the crude enzyme solution.\n10 ml of the enzyme solution was allowed to react with 10 ml of 1% ginsenoside substrate at 40° C. for 20 hours."}, "[5]": {"test_system": "ginsenoside glycosidases from A. oryzae", "assay": "Hydrolysis of ginsenosides with crude ginsenoside glycosidases from A. oryzae, TLC", "type": "biochemical, Aspergillus oryzae", "conditions": "pH 5.0, 30° C., 18 hours", "procedure": "Aspergillus oryzae FFCCDL-39 g (available from Food Fermentation Culture Collection of Dalian Institute of Light Industry) was cultured with stirring in a medium containing 1% ginseng extracts and 3% wheat bran extracts at 30° C. for 64 hours. Cells were removed by centrifugation, after which (NH4)2SO4 powder was added to 2000 ml of the cell-free supernatant with stirring to 65% saturation. The solution was stored overnight at 4° C. and precipitated proteins were collected by centrifugation, resuspended in 80 ml of distilled water and dialyzed against 0.01M acetate buffer pH 5. Insolubles were removed by centrifugation, and the solution was adjusted to 200 ml with 0.01 M acetate buffer pH 5. The crude enzyme solution may be used to hydrolyze ginsenosides or to purify the enzymes.\nEach 100 mg of ginsenosides Rb1, Rb2, Rc Re and Rd and each 10 mg of ginsenoside Rg3 and Rg2 were dissolved in separate tubes containing 10 ml of 0.01M acetate buffer pH 5. 10 ml of the crude enzyme solution obtained as above was added to each tube and allowed to react at 30° C. for 18 hours. Then 10 ml of n-butanol was added to stop the reactions. The products were measured by thin layer chromatography (TLC) (Silica gel 60-F254, Merck; chloroform:methanol:water 70:30:5). […]"}, "[6]": {"test_system": "ginsenoside glycosidase I", "assay": "Hydrolysis of ginsenosides with Fraction 36 (ginsenoside glycosidase I)", "type": "biochemical, Aspergillus niger", "conditions": "Fraction 36; substrates Rb1, Rb2, Rc, Rd 0.5%; Rg3, F2, Rh2, C—K, Rg2 0.05%; pH 5.0, 30° C.", "procedure": "10 ml of the enzyme solution obtained in 1.1 was subjected to a DEAE-Cellulose DE-52 column (Pharamcia, 1.5×6.7 cm) to absorb the enzyme protein. The column was then eluted with a NaCl gradient (0.06, 0.12, 0.18, 0.24, 0.3, 0.4, 0.5 and 0.6M).\nFractions 36 and 54 from the DEAE-Cellulose column appeared as one dot on a SDS-polyacrylamide gel, representing the purified enzymes.\nFraction 36 which was eluted with 0.12 M NaCl from the DEAE-Cellulose column was lyophilized and appeared as a single dot with a molecular weight of 51,000 Daltons when running on a SDS-polyacrylamide gel.\nTo observe the differences between the ginsenoside glycosidases of the invention and known exo-cellulases, the ginsenoside glycosidases of the invention were compared with cellulose β-glucosidase (E.C. 3.2.1.21) in two reactions with 0.5% ginsenosides Rb1 or Rd as substrate."}, "[7]": {"conditions": "Fraction 52, substrate 0.5%, 50° C., pH 5.0, 18 hours"}, "[8]": {"conditions": "10 ml of 1% ginsenoside substrate, 40° C., 20 hours"}}, "data": [{"smiles": "[Cu+2]", "note": "[Cu^++]", "values": [{"measurement": "effect of metal ion on the enzyme", "setting": "[1]", "value": "inhibitory effect"}, {"measurement": "effect of metal ions on the enzyme reaction", "setting": "[2]", "value": "inhibit the reaction"}, {"measurement": "effect of metal ion on the enzyme", "setting": "[3]", "value": "inhibitory effect"}, {"measurement": "effect of metal ion on the enzyme activity", "setting": "[4]; enzymes from wheat bran", "value": "inhibitory effect"}]}, {"smiles": "[Ca+2]", "note": "[Ca^++]", "values": [{"measurement": "effect of metal ion on the enzyme", "setting": "[1]", "value": "enhancing effect"}, {"measurement": "effect of metal ions on the enzyme reaction", "setting": "[2]", "value": "slightly accelerate the conversion rate"}, {"measurement": "effect of metal ion on the enzyme", "setting": "[3]", "value": "enhancing effect"}]}, {"smiles": "CC(C)=CCC[C@](C)(O[C@@H]1O[C@H](CO[C@@H]2O[C@@H](CO)[C@H](O)[C@H]2O)[C@@H](O)[C@H](O)[C@H]1O)[C@H]1CC[C@]2(C)[C@@H]1[C@H](O)C[C@@H]1[C@@]3(C)CC[C@H](O[C@@H]4O[C@H](CO)[C@@H](O)[C@H](O)[C@H]4O[C@@H]4O[C@H](CO)[C@@H](O)[C@H](O)[C@H]4O)C(C)(C)[C@@H]3CC[C@]12C", "note": "[Rc, ginsenoside Rc]", "values": [{"measurement": "Percentage of C—K in the reaction product", "setting": "[5]", "value": 56, "unit": "%"}, {"measurement": "Percentage of F2 in the reaction product", "setting": "[5]", "value": 30, "unit": "%"}, {"measurement": "Percentage of Rd in the reaction product", "setting": "[5]", "value": 19, "unit": "%"}, {"measurement": "Percentage of aglycone in the reaction product", "setting": "[5]", "value": 5, "unit": "%"}, {"measurement": "Percentage of C—K in the reaction product", "setting": "[2]; pH 5, 30° C., 18 hours", "value": 15, "unit": "%"}, {"measurement": "Percentage of F2 in the reaction product", "setting": "[2]; pH 5, 30° C., 18 hours", "value": 58, "unit": "%"}, {"measurement": "Percentage of Rc in the reaction product", "setting": "[2]; pH 5, 30° C., 18 hours", "value": 8, "unit": "%"}, {"measurement": "Percentage of Rd in the reaction product", "setting": "[2]; pH 5, 30° C., 18 hours", "value": 12, "unit": "%"}, {"measurement": "Percentage of Rh2 in the reaction product", "setting": "[2]; pH 5, 30° C., 18 hours", "value": 2, "unit": "%"}, {"measurement": "Percentage of aglycone in the reaction product", "setting": "[2]; pH 5, 30° C., 18 hours", "value": 5, "unit": "%"}, {"measurement": "Percentage of C—K in the reaction product", "setting": "[6]", "value": 52, "unit": "%"}, {"measurement": "Percentage of F2 in the reaction product", "setting": "[6]", "value": 36, "unit": "%"}, {"measurement": "Percentage of Rd in the reaction product", "setting": "[6]", "value": 8, "unit": "%"}, {"measurement": "Percentage of Rh2 in the reaction product", "setting": "[6]", "value": 2, "unit": "%"}, {"measurement": "Percentage of aglycone in the reaction product", "setting": "[6]", "value": 2, "unit": "%"}, {"measurement": "Percentage of F2 in the reaction product", "setting": "[3]; [7]", "value": 55, "unit": "%"}, {"measurement": "Percentage of Rd in the reaction product", "setting": "[3]; [7]", "value": 45, "unit": "%"}, {"measurement": "Percentage of F2 in the reaction product", "setting": "[4]; [8]", "value": 55, "unit": "%"}, {"measurement": "Percentage of Rd in the reaction product", "setting": "[4]; [8]", "value": 43, "unit": "%"}]}]}
